Experimental data published in patent US9895346B2, “Applications of substituent benzyloxy group containing ether compounds for preparing antitumor drugs” (Sinochem Corporation, priority 2013, dated 2018).

How the values were obtained:
[1] = test system: bladder cancer cell line J82; test: In vitro cell inhibition assay (crystal violet), bladder cancer J82; assay type: cell-based, human
Excerpt: (§1) In vitro Cell inhibition assay is as follows:
(§2) The human cancer cell lines used for this assay were bladder cancer J82, T24, prostate cancer LNCap, PC-3, lung cancer A549, H157, H460, H520, colon cancer HCT8, HCT116, RkO, and leukemia HL-60, etc.
(§3) In vitro cell culture technology was selected for the determination of inhibition rate bladder cancer cell lines J82 and T24, prostate cancer cell lines LNCap and PC-3, lung cancer cell lines A549, H157, H460 and H520. 1000 to 3000 cells were inoculated to 24-well plate, followed by addition of 1 mL culture medium well known to researchers in this field to each well, the cells were cultured in 5% incubator for 24 hours at 37° C., then the different concentration compounds and controls were added to each well. It should be noted that the added volume is not more than 0.5% of total volume. After completion of addition, the cells continued being cultured in incubator for one week, the culture medium was removed and washed by cold PBS of 1 mL once, and then fixed for 10 minutes at room temperature with 1% formalin, followed by wash with PBS of 1 mL. After fixation, stain was carried out with 0.1% crystal violet for 30 minutes. 0.1% crystal violet was recycled. The stained cells were washed gently with deionized water, dried at room temperature and kepted. The inhibition rate was calculated according to the foiling equation. The controls are Selumetinib (AZD6244), Gefitinib, Cisplatin. Inhibition rate=number of left cells each treatment/number of left cells of untreated control×100%

[2] = test system: bladder cancer cell line T24; test: In vitro cell inhibition assay (crystal violet), bladder cancer T24; assay type: cell-based, human
Excerpt: as §1, §2, §3

[3] = test system: prostate cancer cell line LNCap; test: In vitro cell inhibition assay (crystal violet), prostate cancer LNCap; assay type: cell-based, human; details: 5.0 μM
Excerpt: as §1, §2, §3

[4] = test system: prostate cancer cell line PC-3; test: In vitro cell inhibition assay (crystal violet), prostate cancer PC-3; assay type: cell-based, human; details: PC-3, 5.0 μM
Excerpt: as §1, §2, §3

[5] = test system: lung cancer cell line A549; test: In vitro cell inhibition assay (crystal violet), lung cancer A549; assay type: cell-based, human
Excerpt: as §1, §2, §3

[6] = test system: lung cancer cell line H460; test: In vitro cell inhibition assay (crystal violet), lung cancer H460; assay type: cell-based, human
Excerpt: as §1, §2, §3

[7] = test system: lung cancer cell line H520; test: In vitro cell inhibition assay (crystal violet), lung cancer H520; assay type: cell-based, human
Excerpt: as §1, §2, §3

[8] = test system: colon cancer HCT8; test: In vitro cell inhibition assay, colon cancer HCT8; assay type: cell-based, human
Excerpt: as §1, §2

[9] = test system: colon cancer HCT116; test: In vitro cell inhibition assay, colon cancer HCT116; assay type: cell-based, human
Excerpt: as §1, §2

[10] = test system: colon cancer RkO; test: In vitro cell inhibition assay, colon cancer RkO; assay type: cell-based, human
Excerpt: as §1, §2

[11] = test system: human leukemia HL-60 cells; test: Proliferation inhibition of human leukemia HL-60 cells, MTT method; assay type: cell-based; details: 48 h incubation, OPTI-MEM medium
Experimental: The inhibition rate of human leukemia HL-60 cells was evaluated by regular MTT method. The human leukemia HL-60 cells were picked up from cell incubator, after washed for twice using PBS, cells were digested by 0.25% trypsin, and then add medium to terminate the digestion. After cells were collected using centrifuge and re-suspended, counting cells under inverted microscope and adding medium to make a density which was 5×10^4 cells/mL. After 100 μL aliquots were added to each well of 96-well microtiter plates, cells were cultured in 5% incubator for overnight at 37° C., then the different concentration compounds were added to each well. After incubation for 48 h, MTT solution was added to each well and plates were then incubated for 4 h. The MTT tetrazolium was reduced to formazan by living cells. Then the formazan crystals were dissolved though adding DMSO to each well. The absorbance was read at 570 nm with a microplate reader.

| SMILES | Inhibition rate on human cancer cells ([5]; A549, 0.25 μM) [%] | Inhibition rate on human cancer cells ([5]; A549, 0.5 μM) [%] | Inhibition rate on human cancer cells ([5]; A549, 1.0 μM) [%] | Inhibition rate on human cancer cells ([5]; A549, 2.5 μM) [%] | Inhibition rate on human cancer cells ([5]; A549, 5.0 μM) [%] | Inhibition rate on human cancer cells ([6]; H460, 0.5 μM) [%] | Inhibition rate on human cancer cells ([6]; H460, 1.0 μM) [%] | Inhibition rate on human cancer cells ([6]; H460, 2.5 μM) [%] | Inhibition rate on human cancer cells ([6]; H460, 5.0 μM) [%] | Inhibition rate on human cancer cells ([7]; H520, 0.25 μM) [%] | Inhibition rate on human cancer cells ([7]; H520, 0.5 μM) [%] | Inhibition rate on human cancer cells ([7]; H520, 1.0 μM) [%] | Inhibition rate on human cancer cells ([7]; H520, 2.5 μM) [%] | Inhibition rate on human cancer cells ([7]; H520, 5.0 μM) [%] | Inhibition rate on human cancer cells ([8]; HCT 8, 0.25 μM) [%] | Inhibition rate on human cancer cells ([8]; HCT 8, 0.5 μM) [%] | Inhibition rate on human cancer cells ([8]; HCT 8, 1.0 μM) [%] | Inhibition rate on human cancer cells ([8]; HCT 8, 2.5 μM) [%] | Inhibition rate on human cancer cells ([8]; HCT 8, 5.0 μM) [%] | Inhibition rate on human cancer cells ([9]; HCT 116, 0.25 μM) [%] | also measured |
| --- | --- | --- | --- | --- | --- | --- | --- | --- | --- | --- | --- | --- | --- | --- | --- | --- | --- | --- | --- | --- | --- |
| CO/C=C(/C(=O)OC)c1ccccc1Oc1cc(Oc2ccccc2C#N)ncn1 [Azoxystrobin] |  |  |  |  |  |  |  |  |  |  |  |  |  |  |  |  |  |  |  |  | Inhibition rate on human cancer cells ([1]; J82, 5.0 μM): 0%; Inhibition rate on human cancer cells ([2]; T24, 5.0 μM): 0%; Inhibition rate on human cancer cells [3]: 0%; Inhibition rate on human cancer cells [4]: 0% |
| N.N.[Cl][Pt][Cl] [Cisplatin, reference compound] | 0 | 0 | 5 | 30 | 80 | 0 | 5 | 30 | 90 | 0 | 5 | 20 | 30 | 50 | 5 | 10 | 50 | 70 | 90 | 0 | Inhibition rate on human cancer cells ([1]; J82, 0.25 μM): 0%; Inhibition rate on human cancer cells ([1]; J82, 0.5 μM): 0%; Inhibition rate on human cancer cells ([1]; J82, 1.0 μM): 0%; Inhibition rate on human cancer cells ([1]; J82, 2.5 μM): 5%; Inhibition rate on human cancer cells ([1]; J82, 5.0 μM): 20%; Inhibition rate on human cancer cells ([2]; T24, 0.25 μM): 0%; Inhibition rate on human cancer cells ([2]; T24, 0.5 μM): 0%; Inhibition rate on human cancer cells ([2]; T24, 1.0 μM): 0%; Inhibition rate on human cancer cells ([2]; T24, 2.5 μM): 5%; Inhibition rate on human cancer cells ([2]; T24, 5.0 μM): 20%; Inhibition rate on human cancer cells ([6]; H460, 0.25 μM): 0%; Inhibition rate on human cancer cells ([9]; HCT 116, 0.5 μM): 0%; Inhibition rate on human cancer cells ([9]; HCT 116, 1.0 μM): 5%; Inhibition rate on human cancer cells ([9]; HCT 116, 2.5 μM): 20%; Inhibition rate on human cancer cells ([9]; HCT 116, 5.0 μM): 50%; Inhibition rate on human cancer cells ([10]; 0.25 μM): 0%; Inhibition rate on human cancer cells ([10]; 0.5 μM): 5%; Inhibition rate on human cancer cells ([10]; 1.0 μM): 10%; Inhibition rate on human cancer cells ([10]; 2.5 μM): 50%; Inhibition rate on human cancer cells ([10]; 5.0 μM): 70% |
| COC=C(C(=O)OC)c1ccccc1COc1ccc2c(C(F)(F)F)cc(=O)oc2c1 [Compound 28-7] |  |  |  | 70 | 90 |  |  | 80 | 95 |  |  |  | 80 | 100 |  |  |  |  |  |  | Proliferation inhibitory effect on human leukemia HL-60 cell (%) ([11]; concentration 1 μM): 42.3%; Proliferation inhibitory effect on human leukemia HL-60 cell (%) ([11]; concentration 10 μM): 71.0%; Proliferation inhibitory effect on human leukemia HL-60 cell (%) ([11]; concentration 100 μM): 83.9% |
| CCCc1c(C)c2ccc(OCc3ccccc3C(=COC)C(=O)OC)cc2oc1=O [Compound 28-27] |  |  | 80 | 90 | 95 |  | 80 | 95 | 95 |  | 95 | 100 | 100 | 100 |  |  |  |  |  |  | Proliferation inhibitory effect on human leukemia HL-60 cell (%) ([11]; concentration 1 μM): 59.0%; Proliferation inhibitory effect on human leukemia HL-60 cell (%) ([11]; concentration 10 μM): 79.9%; Proliferation inhibitory effect on human leukemia HL-60 cell (%) ([11]; concentration 100 μM): 83.9% |
| COC=C(C(=O)OC)c1ccccc1COc1ccc2c(C)c(F)c(=O)oc2c1 [Compound 28-50] |  |  |  |  | 90 |  | 70 | 90 | 95 | 30 | 50 | 60 | 80 | 100 |  |  |  |  |  |  | Proliferation inhibitory effect on human leukemia HL-60 cell (%) ([11]; concentration 1 μM): 47.1%; Proliferation inhibitory effect on human leukemia HL-60 cell (%) ([11]; concentration 10 μM): 83.1%; Proliferation inhibitory effect on human leukemia HL-60 cell (%) ([11]; concentration 100 μM): 84.8% |
| COC=C(C(=O)OC)c1ccccc1COc1ccc2c3c(c(=O)oc2c1)CCCC3 [Compound 28-128] | 70 | 100 | 100 | 100 | 100 | 100 | 100 | 100 | 100 | 70 | 100 | 100 | 100 | 100 | 95 | 100 | 100 | 100 | 100 | 95 | Inhibition rate on human cancer cells ([6]; H460, 0.25 μM): 80%; Inhibition rate on human cancer cells ([9]; HCT 116, 0.5 μM): 100%; Inhibition rate on human cancer cells ([9]; HCT 116, 1.0 μM): 100%; Inhibition rate on human cancer cells ([9]; HCT 116, 2.5 μM): 100%; Inhibition rate on human cancer cells ([9]; HCT 116, 5.0 μM): 100%; Inhibition rate on human cancer cells ([10]; 0.25 μM): 99%; Inhibition rate on human cancer cells ([10]; 0.5 μM): 100%; Inhibition rate on human cancer cells ([10]; 1.0 μM): 100%; Inhibition rate on human cancer cells ([10]; 2.5 μM): 100%; Inhibition rate on human cancer cells ([10]; 5.0 μM): 100% |
| COC=C(C(=O)OC)c1ccccc1COc1ccc2c3c(c(=O)oc2c1C)CCCC3 [Compound 28-129] | 90 | 95 | 100 | 100 | 100 | 70 | 95 | 100 | 100 | 85 | 95 | 100 | 100 | 100 | 80 | 95 | 100 | 100 | 100 | 90 | Inhibition rate on human cancer cells ([9]; HCT 116, 0.5 μM): 95%; Inhibition rate on human cancer cells ([9]; HCT 116, 1.0 μM): 100%; Inhibition rate on human cancer cells ([9]; HCT 116, 2.5 μM): 100%; Inhibition rate on human cancer cells ([9]; HCT 116, 5.0 μM): 100%; Inhibition rate on human cancer cells ([10]; 0.25 μM): 85%; Inhibition rate on human cancer cells ([10]; 0.5 μM): 99%; Inhibition rate on human cancer cells ([10]; 1.0 μM): 100%; Inhibition rate on human cancer cells ([10]; 2.5 μM): 100%; Inhibition rate on human cancer cells ([10]; 5.0 μM): 100% |
| CO/C=C(/C(=O)OC)c1ccccc1COc1ccc(C(F)(F)F)cc1Cl [compound B, flufenoxystrobin] |  |  |  |  |  |  |  |  |  |  |  |  |  |  |  |  |  |  |  |  | inhibition at 0.25 µM ([1]; Homo sapiens, J82, 0.25 μM, read-out: Inhibition rate on human cancer cells): 0%; inhibition at 0.5 µM ([1]; Homo sapiens, J82, 0.5 μM, read-out: Inhibition rate on human cancer cells): 50%; inhibition at 1 µM ([1]; Homo sapiens, J82, 1.0 μM, read-out: Inhibition rate on human cancer cells): 90%; inhibition at 2.5 µM ([1]; Homo sapiens, J82, 2.5 μM, read-out: Inhibition rate on human cancer cells): 95%; inhibition at 5 µM ([1]; Homo sapiens, J82, 5.0 μM, read-out: Inhibition rate on human cancer cells): 100% |
